Test results reported in US20060062859A1, “Composition and method to optimize and customize nutritional supplement formulations by measuring genetic and metabolomic contributing factors to disease diagnosis, stratification, prognosis, metabolism, and therapeutic outcomes” (priority 2004, published 2006).
Read-outs that look alike come from different tables or passages of the source.

Assays:
opioid receptor = details: intra-VTA infusions; cited from earlier work
[1] = cited from earlier work
[2] = people with RA; cited from earlier work
lipolysis = details: p <0.01; cited from earlier work
[3] = injections; cited from earlier work
[4] = nucleus accumbens microinjections; cited from earlier work
[5] = HCA 440 mg t.i.d. eight weeks (Thom); parameters: species or system human; details: in vivo
Description: The Thom study indicates a dosage level of 440 mg of HCA (as opposed to GcE) t.i.d. (1320 mg/day) for eight weeks. […] The mean “weight loss” in the HCA group was 6.4 kg, 1.68 times greater than placebo. […] The GcE was taken in conjunction with 1200 mg L-Carnitine and 600 mcg chromium (from picolinate) and compared to placebo in 186 subjects (200 began the study) for 4 weeks. All participants were supposed to engage in an exercise regimen calibrated to personal needs. Loss of body fat in the treatment group averaged 1.29 kg compared to 0.64 kg in the placebo ([…]. The Girola study investigated the effects of chitosan, combined with a low amount of GcE, making a comparative evaluation impossible. In fact, variables in the studies noted, and others not mentioned, make conclusions about the efficacy of GcE for “weight loss” extremely difficult.

ATP-citrate lyase = target: T1, ATP-citrate lyase (Homo sapiens, UniProt P53396); details: cited from earlier work
T1 sequence (P53396 1-1101): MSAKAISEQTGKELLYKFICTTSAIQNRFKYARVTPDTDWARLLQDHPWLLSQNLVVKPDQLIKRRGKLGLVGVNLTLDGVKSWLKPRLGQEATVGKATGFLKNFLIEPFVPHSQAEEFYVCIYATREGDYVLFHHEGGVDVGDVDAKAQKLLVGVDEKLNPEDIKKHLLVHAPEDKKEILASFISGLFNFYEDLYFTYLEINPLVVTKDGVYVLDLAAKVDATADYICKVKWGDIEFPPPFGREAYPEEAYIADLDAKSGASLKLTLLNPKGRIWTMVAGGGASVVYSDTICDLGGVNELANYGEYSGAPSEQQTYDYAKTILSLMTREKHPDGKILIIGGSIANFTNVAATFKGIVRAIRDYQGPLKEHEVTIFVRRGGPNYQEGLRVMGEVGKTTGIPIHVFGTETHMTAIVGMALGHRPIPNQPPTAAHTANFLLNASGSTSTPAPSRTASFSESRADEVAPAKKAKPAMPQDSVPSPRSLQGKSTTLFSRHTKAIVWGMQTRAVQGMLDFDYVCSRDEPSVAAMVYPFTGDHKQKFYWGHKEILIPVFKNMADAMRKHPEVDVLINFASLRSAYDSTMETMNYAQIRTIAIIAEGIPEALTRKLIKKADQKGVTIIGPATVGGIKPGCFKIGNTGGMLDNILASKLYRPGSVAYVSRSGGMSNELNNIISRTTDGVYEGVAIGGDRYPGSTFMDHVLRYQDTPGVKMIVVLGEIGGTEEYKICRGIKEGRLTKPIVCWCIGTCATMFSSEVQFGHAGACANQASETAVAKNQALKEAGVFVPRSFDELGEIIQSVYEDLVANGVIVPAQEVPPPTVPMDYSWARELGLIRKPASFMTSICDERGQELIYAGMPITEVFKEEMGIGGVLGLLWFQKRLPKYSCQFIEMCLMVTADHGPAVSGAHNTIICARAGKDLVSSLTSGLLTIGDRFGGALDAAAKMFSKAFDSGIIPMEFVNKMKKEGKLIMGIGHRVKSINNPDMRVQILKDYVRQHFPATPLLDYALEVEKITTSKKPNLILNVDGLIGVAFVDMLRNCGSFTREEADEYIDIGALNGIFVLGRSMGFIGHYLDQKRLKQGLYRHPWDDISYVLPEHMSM

[6] = 1320 mg/day, eight weeks, 1200 kcal/day; cited from earlier work
[7] = 2 weeks; cited from earlier work
[8] = in vivo; cited from earlier work
[9] = 3.0 g/day for 3 days; fasting state, rest or moderate exercise; cited from earlier work
[10] = 2 g of HCA; fasting and fed subjects; cited from earlier work
[11] = Chromium picolinate vs placebo in obese subjects genotyped for DRD2 (scale weight, DEXA body fat); format: in vivo, human; details: for change in fat weight, body weight, percent change in weight, body weight change in kg: A2/A2 carriers; for any parameter of weight change: subjects possessing a DRD2 A1 allele (A1/A1 or A1/A2)
Description: A Case Study: Chromium and Dopamine Genes. While there is still controversy regarding the effects of chromium salts (picolinate and nicotinate) on body composition and weight loss in general, recent work seems to support the positive change in body composition in humans. The inventors embarked on a study with chromium picolinate to test out the principles of nutrigenomics. In this study they genotyped obese subjects for the dopamine D2 receptors gene (DRD2). The subjects were assessed for scale weight and for percent body fat. The subjects were divided into matched placebo and chromium picolinate (CrP) groups. […] Moreover, the inventors propose for the first time that mixed effects now observed with CrP administration in terms of body composition, may be resolved by typing the patient via DRD2 genotyping prior to treatment with chromium salts.
To reiterate, Blum and associates found similar evidence with chromium picolinate, for the role of genes in physiological response with nutritional supplements. While there still is controversy regarding the effects of chromium salts (picolinate and nicotinate) on body composition and weight loss in general, recent unpublished work seems to support the positive change in body composition in humans. In consideration of the above study, Chen and Blum and others decided to genotype 130 overweight subjects for the dopamine D2 receptor gene. The subjects were assessed for scale weight and for percent body fat using dual energy X-ray absorptionmetry (DEXA R). The subjects were divided into matched placebo and chromium picolinate groups (400 μg. per day). The sample was separated into two independent groups; those with either an A1/A1 or A1/A2 allele and those with only the A2/A2 pattern. […] Moreover, we propose for the first time that mixed effects now observed with chromium picolinate in terms of body composition, may be resolved by typing the patient via dopamine D2 receptor genotyping prior to treatment with not only chromium salts, but with other nutritional supplements as well.
In terms of weight loss ingredients one nutrient Chromium Picolinate, one of the most widely used ingredient in the weight management field, pharmacogenomically responds differentially based on the DRD2genotype. Dr. Blum is current in revision on a publication detailing these findings. Here are some details on the abstract: • Thomas J H Chen, Kenneth Blum, * Gilbert Kaats, E. R. Braverman. Arthur Eisenberg, M. Sherman. K. Davis, D E Comings, R. Wood, D. Pullin. CHROMIUM PICOLINATE A PUTATIVE ANTI-OBESITY NUTRIENT INDUCES CHANGES IN BODY COMPOSITION AS A FUNCTION OF THE Taq1 DOPAMINE D2 RECEPTOR POLYMORPHISMS. International J. Of Eating Disorders (in revision). • Objective: There is still controversy regarding the effects of chromium salts (picolinate and nicotinate) on body composition and weight loss in humans. Thus, we decided to test the hypothesis that typing the obese patients by genotyping the DRD2 gene prior to treatment with Chromium Picolinate (CrP) would result in a differential treatment outcome. • Methods: We genotyped obese subjects for the dopamine D2 receptors gene (DRD2) utilizing standard PCR techniques. The subjects were assessed for scale weight and for percent body fat using dual energy X-ray absorptiometry (DEXAR). The subjects were divided into matched placebo and CrP groups (400 ug. per day) accordingly. The sample was separated into two independent groups. Those with either an A1/A1 or A1/A2 allele or those with only the A2/A2 allelic pattern.

[12] = after six months; cited from earlier work
[13] = 200 and 400 mcg, cited from earlier work
[14] = 400 mcg, cited from earlier work
[15] = cited from earlier work; remark: listed apart in the source

For `O=C1CC[C@@]2(O)[C@H]3Cc4ccc(O)c5c4[C@@]2(CCN3CC2CC2)[C@H]1O5` [Naltrexone], the “stress-induced activation of dopamine metabolism in the NAcc and prefrontal cortex” value (opioid receptor) is given as “prevent”, the body weight ([1]; anorexic patients) is given as “weight gain” and the binge-eating ([1]; bulimics) is given as “some reduction”.
In the case of `CCCCC/C=C\C/C=C\C/C=C\CCCCC(=O)O` [GLA, GAMMA-LINOLENIC ACID], the RA symptoms [2] is given as “significant improvements”.
For `C[C@]12CCC(=O)C=C1CC[C@@H]1[C@@H]2[C@@H](O)C[C@@]2(C)[C@H]1CC[C@]2(O)C(=O)CO` [cortisol], the “basal rate of lipolysis” value (lipolysis) is given as “significantly reduced”.
In the case of `NC(Cc1ccc(Cl)cc1)C(=O)O` (centres unmarked) [Para-Chlora-Phenylalanine (PCA), Para-Chlora-Phenylalanine], the induction of stress [3] is given as “attenuated”.
In the case of `C[C@H](NC(=O)[C@@H](CC(=O)NO)Cc1ccccc1)C(=O)O` [kelatrophan], the intracranial self-stimulation [4] is given as “reduced”.
In the case of `O=C(O)CC(O)(C(=O)O)C(O)C(=O)O` (stereo not drawn) [HCA, (−)—Hydroxycitric acid], the “weight loss relative to placebo” value [5] is listed as 1.68 times greater than placebo, the “inhibition of ATP-citrate lyase” value (ATP-citrate lyase) is listed as “competitively inhibit” and the “inhibition of ATP-citrate lyase” value (ATP-citrate lyase; listed as FCA) is listed as “competitive inhibitor”. For the same compound, the mean weight loss [6] was 6.4 kg, the “satiety and energy intake compared to placebo” value [7] was “did not increase satiety or effect energy intake” and the satiety [8] was “no observable effects”. For the same compound, the “short-term rate of fat oxidation” value [9] was “did not alter” and the “time to peak plasma levels” value [10] was “approximately 2 hours”.
With Chromium Picolinate the “change in fat weight, body weight, percent change in weight, body weight change in kg” value [11] was “changes in kgms were all significant in A2/A2 group,”, the “change in fat weight, body weight, percent change in weight, body weight change in kg” value ([11]; listed as CrP) was “significant in A2/A2 group and non” and the “change in fat weight, body weight, percent change in weight, body weight change in kg” value ([11]; listed as chromium picolinate) was “all significant”. For the same compound, the “any parameter of weight change” value [11] was “no significance was found”, the “any parameter of weight change” value ([11]; listed as CRP) was “do not respond” and the “any parameter of weight change” value ([11]; listed as CrP) was “no significance was found”. The lean body mass [12] was “After six months the CrP group had an increase in lean”, the “changes in Body Mass composition indicies compared with placebo” value [13] was 200 and 400 mcg of CrP brought about significant and the “changes in Body Mass composition indicies compared with placebo” value ([13]; listed as chromium picolinate) was “body composition improvement, loss of body fat, gain in nonfat mass”. For the same compound, the “reduction in body fat vs placebo” value ([14]; p < 0.001) was “(p < 0.001) and body fat (p < 0.004), had a greater”, the “weight lost vs placebo” value ([14]; p < 0.001) was 400 mcg CrP group lost significantly more weight and the body composition ([14]; p < 0.004) was “reduction in body fat (p < 0.001), significantly improve”. For the same compound, the “insulin response to an oral glucose load” value ([15]; exercise training combined with supplementation) was “lowered insulin response to an oral glucose load” and the body weight ([15]; supplementation alone) was “CrP supplementation resulted in significant weight gain,”.
